Test results as given in patent publication US10731159B2, “Cationic lipid” (DAIICHI SANKYO COMPANY, LIMITED, priority 2013, dated 2020).

Columns and labels:
Format in all cases: physicochemical
[1] = Rate of encapsulation of polynucleotide/mRNA (Quant-iT RiboGreen, with and without Triton X-100)
Experimental: The rate of encapsulation of the double-stranded polynucleotide was measured using Quant-iT RiboGreen RNA Assay kit (Invitrogen Corp.) according to the attached document.
(§1) Specifically, the double-stranded polynucleotide in the nucleic acid lipid particle dispersion was quantified in the presence and absence of a 0.015% Triton X-100 detergent, and the rate of encapsulation was calculated according to the following expression: {[Amount of the double-stranded polynucleotide in the presence of the detergent]−[Amount of the double-stranded polynucleotide in the absence of the detergent]}/[Amount of the double-stranded polynucleotide in the presence of the detergent]}×100(%) (3) Ratio of Double-Stranded Polynucleotide to Lipid
The rate of encapsulation of the mRNA was measured using Quant-iT RiboGreen RNA Assay kit (Invitrogen Corp.) according to the attached document.
as §1, with “mRNA” for “double-stranded polynucleotide”, “mRNA” for “Double-Stranded Polynucleotide”

[2] = Ratio of polynucleotide/mRNA to lipid (wt/wt)
Experimental: The nucleic acid lipid particle dispersion was mixed with acetonitrile and chloroform at a ratio of 1:1:1 and centrifuged at 15,000 rpm for 2 minutes. Then, the aqueous layer obtained as an upper layer was recovered, followed by the extraction of the double-stranded polynucleotide. The amount of the double-stranded polynucleotide in the sample was measured by ion-exchange chromatography (system: Agilent 1100 series, column: TSKgel DEAE-2SW (2.6×150 mm) (Tosoh Corp), buffer A: 20% acetonitrile, buffer B: 20% acetonitrile and 1.6 M ammonium formate, gradient (B %): 30-55% (0-20 min), flow rate: 1 mL/min, temperature: 40° C., detection: 260 nm).
The amount of the phospholipid in the nucleic acid lipid particle dispersion was measured using Phospholipid C-Test Wako (Wako Pure Chemical Industries Ltd.) according to the attached document. Specifically, the phospholipid in the sample was quantified in the presence of a 1% Triton X-100 detergent.
(§2) The amounts of cholesterol and LP in the nucleic acid lipid particle dispersion were measured by reverse-phase chromatography (system: Agilent 1100 series, column: Chromolith Performance RP-18 endcapped 100-3 monolithic HPLC-column (Merck), buffer A: 0.01% trifluoroacetic acid, buffer B: 0.01% trifluoroacetic acid and methanol, gradient (B %): 87-92% (0-10 min), flow rate: 2 mL/min, temperature: 50° C., detection: 205 nm).
(§3) The total amount of lipids was calculated from the amount of the phospholipid and the compositional ratio of lipid components constituting the liposome, and the ratio of the polynucleotide to the lipid was calculated from the aforementioned amount of the polynucleotide and the total amount of lipids according to the following expression: [Double-stranded polynucleotide concentration]/[Total lipid concentration] (wt/wt)
as §3, with “phospholipid, the amount of cholesterol, and the amount of LP,” for “phospholipid”
The amount of the double-stranded polynucleotide in a sample from the nucleic acid lipid particle dispersion was measured in the presence of a 5% Triton X-100 detergent by ion-exchange chromatography (system: Agilent 1100 series, column: DNAPac PA200 (4×250 mm) (Thermo Fisher Scientific K.K.), buffer A: 10 mM Tris, 25 mM sodium perchlorate, and 20% ethanol, pH 7.0, buffer B: 10 mM Tris, 250 mM sodium perchlorate, and 20% ethanol, pH 7.0, gradient (B %): 20-70% (0-15 min), flow rate: 0.5 mL/min, temperature: 40° C., detection: 260 nm).
as §2, with “82-92%” for “87-92%”
The total amount of lipids was calculated from the amount of the phospholipid, the amount of cholesterol, and the amount of LP, and the compositional ratio of lipid components constituting the liposome, and the ratio of the mRNA to the lipid was calculated from the “amount of the mRNA in the presence of the detergent” of the preceding paragraph (2) according to the following expression: [mRNA concentration in the presence of the detergent]/[Total lipid concentration] (wt/wt)

[3] = Average particle size of nucleic acid lipid particle (NICOMP 380ZLS)
Experimental: The particle size of the liposome was measured using Zeta Potential/Particle Sizer NICOMP™ 380ZLS (Particle Sizing Systems, LLC). In the tables, the average particle size is indicated by a volume-average particle size, and the numeric value following ±represents a deviation.

[4] = particles of Example 31: DSPC:Chol:LP:PEG-C-DMA=20:48:30:2, CT-157/CT-169 double-stranded polynucleotide
[5] = particles of Example 31, volume-average particle size ± deviation

| Ratio of polynucleotide to lipid siRNA/lipid ([2]; particles of Example 31, total lipids calculated from phospholipid, cholesterol and LP amounts (Table 4)) [wt/wt] | SMILES | Rate of polynucleotide encapsulation [1, 4] [%] | Average particle size [3, 5] [nm] | Rate of polynucleotide encapsulation ([1]; Example 55: particles prepared as in Example 31 (β-catenin double-stranded polynucleotide)) [%] | Ratio of polynucleotide to lipid siRNA/lipid ([2]; Example 55: particles prepared as in Example 31) [wt/wt] | Ratio of polynucleotide to lipid siRNA/lipid ([2]; particles of Example 31, total lipids calculated from phospholipid amount and compositional ratio (Table 3)) [wt/wt] | Average particle size ([3]; Example 55: particles prepared as in Example 31, ± deviation) [nm] |
| --- | --- | --- | --- | --- | --- | --- | --- |
| 0.072 | CCCCC/C=C\C/C=C\CCCCCCCC(CCCCCCCCCC)OC(=O)OCCCN(C)C (stereo not drawn) [Example 8, 3-Dimethylaminopropyl(9Z,12Z)-octacosa-19,22-dien-11-yl Carbonate] | 96.4 | 157 ± 46 | – | – | – | – |
| – | CCCCC/C=C\C/C=C\CCCCCCCCC(CCCCCCCC/C=C\C/C=C\CCCCC)OC(=O)OCCN(C)C [Reference Example 2, 2-(Dimethylamino)ethyl(6Z,9Z,28Z,31Z)-heptatriaconta-6,9,28,31-tetraen-19-yl Carbonate, reference compound] | 89.0 | 139 ± 50 | 94 | 0.055 | 0.104 | 165 ± 11 |
